Measured values as given in patent US20220154242A1, “METHOD FOR MODIFYING SUBSTRATE SPECIFICITY OF GLUCOSE DEHYDROGENASE AND AGENT FOR MODIFYING SUBSTRATE SPECIFICITY OF GLUCOSE DEHYDROGENASE” (KIKKOMAN CORPORATION, priority 2019, published 2022).

Key:
[1] = test system: MpGDH; assay: Maltose/glucose response current ratio, unimmobilized MpGDH with mPMS (chronoamperometry); assay type: biochemical, Mucor prainii; conditions: for maltose/glucose relative to MpGDH considered as 100%: unimmobilized MpGDH, mPMS, 5 mM maltose, +100 mV
Experimental: (§1) 10 μL of 12 mg/ml MpGDH purified preparation, 10 μL of 15 mM each glucose analog, and 10 μL of 20 mM potassium phosphate buffer were mixed and allowed to stand for 2 hours or longer. Onto screen-printed electrodes (manufactured by DropSens, Product number: DRP-C110), 80 μL of PBS, 5 μL of each MpGDH solution, and 10 μL of 2 mg/ml mPMS solution were applied and mixed. Chronoamperometric measurement was carried out at an applied voltage of +100 mV (Ag/Ag+). Once the current value had become sufficiently constant (about 100 seconds after the start of measurement), a maltose solution was added to a final concentration of 5 mM and mixed by pipetting up and down. Measurement was stopped once the current value had become sufficiently constant. The difference in the response current before and after the addition of maltose was regarded as the response current value of maltose. In contrast, when an equivalent amount of pure water was added instead of the maltose solution, increase in the response current was not observed. The used printed electrode was thoroughly washed with ultrapure water and dried, and then chronoamperometric measurement was carried out in the same manner as above. A glucose solution was added instead of the maltose solution and the response current value of glucose was measured. The value calculated by dividing the response current value of maltose by the response current value of glucose was expressed as maltose/glucose (%).

[2] = test system: GLD1 (glucose dehydrogenase (FAD-dependent), BBI Solutions); assay: Maltose/glucose response current ratio, unimmobilized GLD1 with mPMS (chronoamperometry); assay type: biochemical, Aspergillus; conditions: for Maltose/Glucose (%) / Relative value (%) of Maltose/Glucose: 5 mM additive; for Maltose/Glucose (%): mPMS; for Relative value (%) of Maltose/Glucose: no modifier = 100%
Experimental: as §1
In the same manner, GLD1 was used to examine the effect of the substrate specificity modifier.

[3] = test system: Wild type MpGDH; assay: Maltose/glucose response current ratio, IPPD/MpGDH-immobilized screen-printed electrode (chronoamperometry); assay type: biochemical, Mucor prainii; conditions: for Maltose/Glucose (%) / Relative value (%) of Maltose/Glucose: 5 mM additive, immobilized wild type MpGDH; for Maltose/Glucose (%): 1 mM maltose, 1 mM glucose, +250 mV; for Relative value (%) of Maltose/Glucose: no modifier = 100%; for Modification of substrate specificity: immobilized MpGDH
Text: (§2) The ratio (Mal/Glu) of the reactivity of the glucose dehydrogenase to maltose (Mal) relative to the reactivity thereof to glucose (Glu) can be determined by the following procedures. Onto a printed carbon electrode, N-isopropyl-N′-phenyl-p-phenylenediamine (IPPD) is immobilized by adsorption and a glucose dehydrogenase is immobilized by cross-linking using glutaraldehyde, wherein the glucose dehydrogenase is, for example, a glucose dehydrogenase from a microorganism of the genus Mucor or a glucose dehydrogenase from a microorganism of the genus Aspergillus. Chronoamperometry is performed by using a three-electrode system composed of a working electrode, a counter electrode, and a reference electrode and applying a potential of +250 mV (Ag/AgCl). Once the current value has become sufficiently constant, maltose is added to a final concentration of 1 mM in phosphate-buffered saline (PBS) (for example, maltose is added 100 seconds after the start of measurement). Next, once the current value has become sufficiently constant again after the addition of maltose, glucose is added to a final concentration of 1 mM in phosphate-buffered saline (PBS) (for example, glucose is added 100 seconds after the addition of maltose). The substrate specificity of glucose dehydrogenase can be evaluated by measuring the reactivity thereof to maltose when the reactivity thereof to glucose is considered as 100%. In the present specification, the ratio of the reactivity to maltose (Mal) relative to the reactivity to glucose (Glu) may be denoted as Mal/Glu. When the reactivity is evaluated based on the response current(s), the ratio of the reactivity may be expressed as the ratio of the response current(s).
(§3) 10 μL of 12 mg/ml MpGDH purified preparation, 10 μL of 15 mM each glucose analog, and 10 μL of 20 mM potassium phosphate buffer were mixed and allowed to stand for 2 hours or longer. N-isopropyl-N′-phenyl-p-phenylenediamine (IPPD) was immobilized by adsorption onto screen-printed electrodes (manufactured by DropSens, Product number: DRP-C110) and 12 μg of each MpGDH was applied to the electrodes and allowed to dry at room temperature. Lastly, the electrodes were placed in 25% glutaraldehyde vapor and the resulting electrodes were washed with pure water to obtain IPPD.MpGDH-immobilized electrodes. Next, the electrode was connected to an ALS electrochemical analyzer 814D via a dedicated connector (DRP-CAC). Then, the IPPD.GDH-immobilized electrode, an Ag/AgCl reference electrode, and a platinum counter electrode were immersed in PBS and chronoamperometric measurement was carried out. The applied voltage was set to +250 mV (Ag/AgCl). Once the current value had become sufficiently constant (about 100 seconds after the start of measurement), maltose was added to a final concentration of 1 mM in PBS. Next, subsequently to the addition of the maltose solution, once the current value had become sufficiently constant again (about 100 seconds after the addition of maltose), a glucose solution was added to a final concentration of 1 mM. The difference in the response current before and after the addition of maltose was recorded as the response current value of maltose, and the difference in the response current before and after the addition of glucose was recorded as the response current value of glucose. The value calculated by dividing the response current value of maltose by the response current value of glucose was expressed as maltose/glucose (%). […] Furthermore, when the maltose/glucose of MpGDH in the absence of a substrate specificity modifier is considered as 100%, the value in the presence of D-glucal became 69%, and the substrate specificity was modified.

[4] = test system: MrdGDH; assay: Maltose/glucose response current ratio, unimmobilized MrdGDH with mPMS (chronoamperometry); assay type: biochemical, Mucor RD056860; conditions: for Maltose/Glucose (%) / Relative value (%) of Maltose/Glucose: 5 mM additive; for Maltose/Glucose (%): mPMS; for Relative value (%) of Maltose/Glucose: no modifier = 100%
Experimental: as §1
(§4) In the same manner, MrdGDH was used to examine the effect of the substrate specificity modifier.

[5] = test system: Wild type MpGDH; assay: Maltose/glucose response current ratio, MWCNT/DPPD/MpGDH-immobilized carbon cloth electrode (chronoamperometry); assay type: biochemical, Mucor prainii; conditions: for Maltose/Glucose Relative value (%): 50 mM additive, wild type MpGDH on carbon cloth electrode, no modifier = 100%; for Modification of substrate specificity of GDH: carbon cloth electrode, MpGDH
Experimental: The cloth was thoroughly dried and then washed with ultrapure water. Subsequently, 40 mg/ml wild type MpGDH and 20 μl of 100 mM various glucose analogs dissolved in ultrapure water were mixed in equal proportions, and 20 μl of the resulting solution was applied to the […] immobilized electrode. After being allowed to dry at room temperature, the electrode was placed in 25% glutaraldehyde vapor for 20 minutes to immobilize MpGDH by cross-linking. Then, the electrode was subjected to washing with ultrapure water in the same manner as above to obtain an […]-immobilized electrode. Next, this electrode was connected to an ALS electrochemical analyzer […]. Then, the […]-immobilized electrode, an Ag/AgCl reference electrode, and a platinum counter electrode were immersed in PBS, and chronoamperometric measurement was carried out. The applied voltage was set to +250 mV (Ag/AgCl). […] The difference in the response current before and after the addition of maltose was recorded as the response current value of maltose, and the difference in the response current before and after the addition of glucose was recorded as the response current value of glucose. The value calculated by dividing the response current value of maltose by the response current value of glucose was expressed as maltose/glucose (%). […] An […]-immobilized electrode was made in the same manner as Example 4 except that the application step was altered. That is, 20 μl of 40 mg/ml wild type MpGDH was mixed with 10 μl each of 100 mM glycerol and 100 mM L-iditol dissolved in ultrapure water, and 20 μl of the resulting solution was applied to the […] immobilized electrode for the application step. Then, chronoamperometric measurement was carried out according to the method described in Example 4, and the maltose/glucose (%) was calculated.

[6] = test system: GLD1 (glucose dehydrogenase (FAD-dependent), BBI Solutions); assay: Maltose/glucose response current ratio, IPPD/GLD1-immobilized screen-printed electrode (chronoamperometry); assay type: biochemical, Aspergillus; conditions: for Maltose/Glucose (%) / Relative value (%) of Maltose/Glucose: 5 mM additive; for Maltose/Glucose (%): 1 mM maltose, 1 mM glucose; for Relative value (%) of Maltose/Glucose: no modifier = 100%
Text: as §2, §3
In the same manner, glucose dehydrogenase (FAD-dependent) (from BBI Solutions, Product Code: GLD1, hereinafter denoted as GLD1) was used to examine the effect of the substrate specificity modifier.

[7] = test system: MrdGDH; assay: Maltose/glucose response current ratio, IPPD/MrdGDH-immobilized screen-printed electrode (chronoamperometry); assay type: biochemical, Mucor RD056860; conditions: for Maltose/Glucose (%) / Relative value (%) of Maltose/Glucose: 5 mM additive; for Maltose/Glucose (%): 1 mM maltose, 1 mM glucose; for Relative value (%) of Maltose/Glucose: no modifier = 100%
Text: as §2, §3, §4

| SMILES | Modification of substrate specificity [2] | Maltose/Glucose (%) [2] | Relative value (%) of Maltose/Glucose [2] | Modification of substrate specificity [6] | Maltose/Glucose (%) [6] | Relative value (%) of Maltose/Glucose [6] | maltose/glucose relative to MpGDH considered as 100% [1] | Maltose/Glucose (%) [3] | Relative value (%) of Maltose/Glucose [3] | Modification of substrate specificity [3] | Modification of substrate specificity [4] | Maltose/Glucose (%) [4] | Relative value (%) of Maltose/Glucose [4] | Maltose/Glucose Relative value (%) [5] | Modification of substrate specificity of GDH [5] | Modification of substrate specificity [7] | Maltose/Glucose (%) [7] | Relative value (%) of Maltose/Glucose [7] | Acts as substrate specificity modifier ([1]; enzyme not immobilized) |
| --- | --- | --- | --- | --- | --- | --- | --- | --- | --- | --- | --- | --- | --- | --- | --- | --- | --- | --- | --- |
| OC[C@@H](O)[C@@H](O)[C@@H](O)CO [Ribitol, ribitol] | modified the substrate specificity | 0.29% | 88% |  |  |  | 58% | 0.08% | 17% | modified the substrate specificity | modified the substrate specificity | 22% | 71% |  |  |  |  |  |  |
| OCC(O)CO [Glycerol, glycerol] |  |  |  |  |  |  |  |  |  |  |  |  |  | 29% | modified the substrate specificity |  |  |  |  |
| OC[C@@H](O)[C@H](O)[C@@H](O)CO [Xylitol, xylitol] |  |  |  |  |  |  |  |  |  |  |  |  |  | 21% | modified the substrate specificity |  |  |  |  |
| OC[C@@H](O)[C@@H](O)[C@H](O)[C@@H](O)CO [Sorbitol, sorbitol] |  |  |  |  |  |  | 67% | 0.2% | 43% | modified the substrate specificity | modified the substrate specificity | 23% | 74% |  |  | modified the substrate specificity | 17% | 73% |  |
| OC[C@@H](O)[C@@H](O)[C@H](O)[C@H](O)CO [D-mannitol] |  |  |  |  |  |  |  |  |  |  |  |  |  | 3% | modified the substrate specificity |  |  |  |  |
| O=C[C@@H](O)[C@@H](O)[C@H](O)[C@@H](O)CO [L-gulose] | modified the substrate specificity | 0.23% | 70% | modified the substrate specificity | 0% | 0% | 56% | 0.34% | 74% | modified the substrate specificity | modified the substrate specificity | 28% | 90% | 62% | modified the substrate specificity |  |  |  |  |

Second part, led by results:

| Modification of substrate specificity [2] | Maltose/Glucose (%) [2] | Relative value (%) of Maltose/Glucose [2] | Modification of substrate specificity [6] | Maltose/Glucose (%) [6] | Relative value (%) of Maltose/Glucose [6] | SMILES | maltose/glucose relative to MpGDH considered as 100% [1] | Maltose/Glucose (%) [3] | Relative value (%) of Maltose/Glucose [3] | Modification of substrate specificity [3] | Modification of substrate specificity [4] | Maltose/Glucose (%) [4] | Relative value (%) of Maltose/Glucose [4] | Maltose/Glucose Relative value (%) [5] | Modification of substrate specificity of GDH [5] | Modification of substrate specificity [7] | Maltose/Glucose (%) [7] | Relative value (%) of Maltose/Glucose [7] | Acts as substrate specificity modifier ([1]; enzyme not immobilized) |
| --- | --- | --- | --- | --- | --- | --- | --- | --- | --- | --- | --- | --- | --- | --- | --- | --- | --- | --- | --- |
|  |  |  | modified the substrate specificity | 0.01% | 4% | OC[C@@H](O)[C@H](O)[C@@H](O)[C@H](O)CO [D-iditol] | 84% | 0.1% | 22% | modified the substrate specificity | modified the substrate specificity | 21.6% | 70% |  |  | modified the substrate specificity | 19.3% | 83% |  |
| modified the substrate specificity | 0.25% | 76% | modified the substrate specificity | 0.09% | 30% | OC[C@H]1OC=C[C@@H](O)[C@@H]1O [D-glucal] |  |  | 69% |  |  |  |  |  |  | modified the substrate specificity | 18.1% | 78% |  |
| modified the substrate specificity | 0.25% | 76% | modified the substrate specificity | 0% | 0% | OC[C@H](O)[C@@H](O)[C@H](O)[C@@H](O)CO [L-iditol] | 68% |  |  |  |  |  |  | 58% | modified the substrate specificity |  |  |  | act as a substrate specificity modifier |
| modified the substrate specificity | 0.28% | 85% | modified the substrate specificity | 0.08% | 35% | OC[C@H]1O[C@H](O[C@H]2O[C@H](CO)[C@@H](O)[C@H](O)[C@H]2O)[C@H](O)[C@@H](O)[C@@H]1O [Trehalose, trehalose] | 72% |  |  |  | modified the substrate specificity | 22% | 71% |  |  | modified the substrate specificity | 14.4% | 62% |  |
